Experimental data taken from patent EP2072513A1, “A cyano piperidinyl-phenil-oxazolidinone and use thereof” (Ferrer Internacional, S.A., priority 2007, dated 2009).
In brackets after ≈: the same amount, converted by molar mass. Read-outs that look alike come from different tables or passages of the source.

Key:
[1] = tested on: S. aureus ATCC 25923 MS 319; test: MIC, standard micro dilution method (NCCLS M7-A5); assay type: cell-based; conditions: Staphylococcus aureus, ATCC25923
[2] = tested on: S. aureus ATCC 43300 MR 214; test: MIC, standard micro dilution method (NCCLS M7-A5); assay type: cell-based; conditions: Staphylococcus aureus, ATCC43300
[3] = tested on: S. aureus clinical strain cfr methylase 432; test: MIC, standard micro dilution method (NCCLS M7-A5); assay type: cell-based; conditions: Staphylococcus aureus; S. aureus clinical strain cfr methylase 432 (linezolid-resistant)
[4] = tested on: S. epidermidis ATCC 12228 MR 11; test: MIC, standard micro dilution method (NCCLS M7-A5); assay type: cell-based; conditions: Staphylococcus epidermidis, ATCC12228
[5] = tested on: S. pneumoniae ATCC 49619 PR 215; test: MIC, standard micro dilution method (NCCLS M7-A5); assay type: cell-based; conditions: Streptococcus pneumoniae, ATCC49619
[6] = tested on: E. faecalis ATCC 29212 53; test: MIC, standard micro dilution method (NCCLS M7-A5); assay type: cell-based; conditions: Enterococcus faecalis, ATCC29212
E. faecium ATCC 10541 13 = test: MIC, standard micro dilution method (NCCLS M7-A5); assay type: cell-based; conditions: Enterococcus faecium, ATCC10541
[7] = tested on: B. fragilis ATCC 25285 A12; test: MIC, standard micro dilution method (NCCLS M7-A5); assay type: cell-based; conditions: Bacteroides fragilis, ATCC25285; B. fragilis ATCC 25285 A12, anaerobic, Brucella Blood medium
[8] = tested on: Moraxella catarrhalis HCl-78 259/339; test: MIC, standard micro dilution method (NCCLS M7-A5); assay type: cell-based; conditions: HCL78259/339
human MAO-A = biological target: T1, human MAO-A (Homo sapiens, UniProt P21397); test: In vitro MAO-A enzymatic activity (kynuramine substrate, fluorescence); assay type: biochemical; conditions: membranes from SF9 cells, kynuramine 30 µM, 37° 40 min
T1 construct: purchased Gentest, BD, USA; host or cells: SF9 insect cells (membranes)
T1 sequence (P21397 1-527): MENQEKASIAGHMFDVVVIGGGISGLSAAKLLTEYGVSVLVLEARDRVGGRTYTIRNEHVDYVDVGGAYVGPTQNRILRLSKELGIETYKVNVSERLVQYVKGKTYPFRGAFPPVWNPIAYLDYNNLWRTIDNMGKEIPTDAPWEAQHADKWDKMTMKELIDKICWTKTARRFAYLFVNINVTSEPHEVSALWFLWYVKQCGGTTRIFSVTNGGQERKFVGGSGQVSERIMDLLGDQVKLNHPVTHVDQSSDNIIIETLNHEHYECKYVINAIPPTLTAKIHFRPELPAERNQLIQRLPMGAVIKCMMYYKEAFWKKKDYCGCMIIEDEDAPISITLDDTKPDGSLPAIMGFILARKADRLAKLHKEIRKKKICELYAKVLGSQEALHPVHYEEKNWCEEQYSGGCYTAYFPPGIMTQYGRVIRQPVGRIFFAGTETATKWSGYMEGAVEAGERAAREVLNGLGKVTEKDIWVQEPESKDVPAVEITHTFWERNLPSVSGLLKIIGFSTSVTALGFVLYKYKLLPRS
Method: (§1) MAO-A and MAO-B enzymatic activities were measured using membranes obtained from SF9 cells expressing either human MAO-A or human MAO-B (Gentest, BD, USA). Assays were done in blank 96-well micro titter plates using kynuramine as substrate and measuring the formation of 4-hydroxyquinoline by fluorescence at 340 nm/465 nm. Briefly, membranes with MAO-A (0.006 mg/mL protein) and MAO-B (0.015 mg/mL protein) were incubated with kynuramine, 30 µM, at 37° for 40 min in the presence of the compound in a final volume of 200 µL. Reactions were stopped by adding NaOH 2N and the reaction product, 4-hydroxyquinoline, was determined by fluorometry using a Tecan Ultra reader.

human MAO-B = biological target: T2, human MAO-B (Homo sapiens, UniProt P27338); test: In vitro MAO-B enzymatic activity (kynuramine substrate, fluorescence); assay type: biochemical; conditions: membranes from SF9 cells, kynuramine 30 µM, 37° 40 min
T2 construct: purchased Gentest, BD, USA; host or cells: SF9 insect cells (membranes)
T2 sequence (P27338 1-520): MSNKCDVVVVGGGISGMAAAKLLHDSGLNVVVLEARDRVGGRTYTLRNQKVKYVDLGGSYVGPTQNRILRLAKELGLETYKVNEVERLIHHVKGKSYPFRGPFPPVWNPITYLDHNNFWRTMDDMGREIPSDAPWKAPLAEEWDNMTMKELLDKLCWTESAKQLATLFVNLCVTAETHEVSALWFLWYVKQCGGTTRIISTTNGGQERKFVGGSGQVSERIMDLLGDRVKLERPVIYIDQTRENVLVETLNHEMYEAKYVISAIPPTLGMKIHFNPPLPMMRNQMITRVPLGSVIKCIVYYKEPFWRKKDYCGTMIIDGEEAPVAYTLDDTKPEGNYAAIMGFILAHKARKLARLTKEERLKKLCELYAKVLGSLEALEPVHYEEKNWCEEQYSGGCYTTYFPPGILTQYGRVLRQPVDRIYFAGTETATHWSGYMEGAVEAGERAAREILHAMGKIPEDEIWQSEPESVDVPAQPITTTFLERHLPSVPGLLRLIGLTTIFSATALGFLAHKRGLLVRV
Method: as §1

[9] = Equilibrium solubility of polymorphic forms in solvent systems; assay type: physicochemical
Method: Table 1: Equilibrium solubilities of polymorphic form B. Solubility studies were also performed for polymorphic form A. In Table 2 appear the data obtained. Table 2: Equilibrium solubilities of polymorphic form A.

[10] = Suspension equilibration experiments (relative stability of polymorphic forms); assay type: physicochemical; conditions: at room temperature (17-30 °C)
Source text: However, a mixture of polymorphic form A and B in water slowly converted into pure polymorphic form B as well. Similarly, a suspension containing a mixture of polymorphic forms B and C in ethanol converted into polymorphic form B after some time.

[11] = tested on: Moxarella, Pasteurella and Bacteroides spp.; conditions: cited from earlier work

With `CC(=O)NC[C@H]1CN(c2ccc(N3CCC(C#N)CC3)c(F)c2)C(=O)O1` [Compound (Ia), (S)-N-{3-[4-(4-cyano-piperidin-1-yl)-3-fluoro-phenyl]-2-oxo-oxazolidin-5-ylmethyl}-acetamide] as the compound, how does the MIC [1] read?
The MIC was 1 µg/mL (≈ 2.77 µM).

What about the MIC [2] of the same compound?
The MIC was 1 µg/mL (≈ 2.77 µM).

And the MIC [3]?
The MIC was 2 µg/mL (≈ 5.55 µM).

What about the MIC [4] of the same compound?
The MIC was 1 µg/mL (≈ 2.77 µM).

What about the MIC [5] of the same compound?
Its MIC is 0.5 µg/mL (≈ 1.39 µM).

What about the MIC [6] of the same compound?
Its MIC is 1 µg/mL (≈ 2.77 µM).

What about the MIC (E. faecium ATCC 10541 13) of the same compound?
Its MIC is 0.5 µg/mL (≈ 1.39 µM).

What about the MIC [7] of the same compound?
Its MIC is 1 µg/mL (≈ 2.77 µM).

What about the MIC [8] of the same compound?
The MIC was 1 µg/mL (≈ 2.77 µM).

What about the Ki (human MAO-A) of the same compound?
Its Ki is 1050 nM.

What about the Ki (human MAO-B) of the same compound?
The Ki was 2450 nM.

Which results are given for `CC(=O)NC[C@H]1CN(c2ccc(N3CCC(C#N)CC3)c(F)c2)C(=O)O1` [polymorphic form B, (S)-N-{3-[4-(4-cyano-piperidin-1-yl)-3-fluoro-phenyl]-2-oxo-oxazolidin-5-ylmethyl}-acetamide]?
Solubility ([9]; Ethanol): 2600 µg/mL (≈ 7210 µM); Solubility ([9]; Ethyl acetate): 2900 µg/mL (≈ 8050 µM); Solubility ([9]; water, pH 8.9, water, thermodynamic from solid, Water (Fluka 95305), pH 8.9, read-out: Solubility): 240 µg/mL (≈ 666 µM); relative stability of the polymorphic forms [10]: the most stable one

Which results are given for `CC(=O)NC[C@H]1CN(c2ccc(N3CCOCC3)c(F)c2)C(=O)O1` [Linezolid, N-[[(5S)-3-[3-fluoro-4-(4-morpholinyl)phenyl]-2-oxo-5-oxazolidinyl]methyl]acetamide, reference compound]?
MIC [1]: 1 µg/mL (≈ 2.96 µM); MIC [2]: 1 µg/mL (≈ 2.96 µM); MIC [3]: 16 to 32 µg/mL (≈ 47.4 to 94.9 µM); MIC [4]: 1 µg/mL (≈ 2.96 µM); MIC [5]: 1 µg/mL (≈ 2.96 µM); MIC [6]: 0.5 µg/mL (≈ 1.48 µM); MIC (E. faecium ATCC 10541 13): 1 µg/mL (≈ 2.96 µM); MIC [7]: 2 µg/mL (≈ 5.93 µM); MIC [8]: 2 µg/mL (≈ 5.93 µM); Ki (human MAO-A): 6960 nM; MICs [11]: 2 to 8 µg/mL

What does the source list for `CC(=O)NC[C@H]1CN(c2ccc(N3CCC(C#N)CC3)c(F)c2)C(=O)O1` [polymorphic form A, (S)-N-{3-[4-(4-cyano-piperidin-1-yl)-3-fluoro-phenyl]-2-oxo-oxazolidin-5-ylmethyl}-acetamide]?
Solubility ([9]; Ethanol): 6300 to 7300 µg/mL; Solubility ([9]; Ethyl acetate): 11800 to 15400 µg/mL; Solubility ([9]; Water (Fluka 95305), pH 8.9): 390 µg/mL (≈ 1080 µM); Solubility ([9]; water, pH 8.7, water, thermodynamic from solid, Water (Fluka 95305), pH 8.7, read-out: Solubility): 400 µg/mL (≈ 1110 µM)
